Reference: US7855290B2, “Pyridine derivatives and pyrimidine derivatives (3)” (Eisai R&D Management Co., Ltd., priority 2005, dated 2010)
pIC50: −log10 of the molar value.

target: T1, His6-HGFR (HGFR cytoplasmic domain) (Homo sapiens, UniProt P08581); assay: Inhibitory activity against HGFR tyrosine kinase activity (HTRF); type: biochemical; details: biotin-poly(GT), ATP, 30° C. 10 min
T1 construct: made in house; host or cells: Sf9 insect cells (Spodoptera frugiperda), baculovirus, pFastBac-HT vector
T1 sequence (P08581 956-1390 limits assumed): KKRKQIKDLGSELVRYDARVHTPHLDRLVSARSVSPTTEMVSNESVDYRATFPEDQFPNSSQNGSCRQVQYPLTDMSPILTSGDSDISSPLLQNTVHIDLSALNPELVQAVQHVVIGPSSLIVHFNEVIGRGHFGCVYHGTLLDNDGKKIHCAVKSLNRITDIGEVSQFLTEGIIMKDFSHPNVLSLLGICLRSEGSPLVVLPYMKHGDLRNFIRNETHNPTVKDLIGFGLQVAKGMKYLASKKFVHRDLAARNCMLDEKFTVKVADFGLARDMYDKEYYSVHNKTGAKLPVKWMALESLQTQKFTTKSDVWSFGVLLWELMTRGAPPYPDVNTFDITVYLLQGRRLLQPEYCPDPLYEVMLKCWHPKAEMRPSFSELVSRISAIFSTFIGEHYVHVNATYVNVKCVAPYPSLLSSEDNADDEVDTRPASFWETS
Summary of the method: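 Sf9-expressed, Ni-NTA-purified N-terminal His6-tagged HGFR cytoplasmic domain (from Lys974), 30 ng, phosphorylates 250 ng biotin-poly(GT) in Hepes pH 7.4 with MgCl2, MnCl2 and Na3VO4. Reaction started with 4 μM ATP stock, run 10 min at 30° C, stopped with EDTA. Phosphotyrosine is detected by HTRF.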

| SMILES | pIC50 |
| --- | --- |
| O=C(Nc1cc(Oc2ccc(NC(=O)C3(C(=O)Nc4ccc(F)cc4)CC3)cc2F)ccn1)N1CC(CO)C1 [Example 81, N-(3-Fluoro-4-{[2-({[3-(hydroxymethyl)azetidin-1-yl]carbonyl}amino)pyridin-4-yl]oxy}phenyl)-N′-(4-fluorophenyl)cyclopropane-1,1-dicarboxamide] | 7.72 |
| O=C(Nc1cc(Oc2ccc(NC(=O)C3(C(=O)Nc4ccc(F)cc4)CC3)c(F)c2)ccn1)N1CCC(CO)CC1 [Example 83, N-(2-Fluoro-4-{[2-({[4-(hydroxymethyl)piperidin-1-yl]carbonyl}amino)pyridin-4-yl]oxy}phenyl)-N′-(4-fluorophenyl)cyclopropane-1,1-dicarboxamide] | 7.77 |
| O=C(Nc1cc(Oc2ccc(NC(=O)C3(C(=O)Nc4ccc(F)cc4)CC3)cc2F)ccn1)N1CCC(O)CC1 [Example 84, N-[3-Fluoro-4-[(2-{[(4-hydroxypiperidin-1-yl)carbonyl]amino}pyridin-4-yl)oxy]phenyl}-N′-(4-fluorophenyl)cyclopropane-1,1-dicarboxamide] | 8.05 |
| O=C(Nc1cc(Oc2ccc(NC(=O)C3(C(=O)Nc4ccc(F)cc4)CC3)c(F)c2)ccn1)N1CC[C@@H](O)C1 [Example 87, N-(2-Fluoro-4-{[2-({[(3R)-3-hydroxypyrrolidin-1-yl]carbonyl}amino)pyridin-4-yl]oxy}phenyl)-N′-(4-fluorophenyl)cyclopropane-1,1-dicarboxamide] | 8.05 |
| O=C(Nc1cc(Oc2ccc(NC(=O)C3(C(=O)Nc4ccc(F)cc4)CC3)cc2F)ccn1)N1CC[C@H](O)C1 [Example 88, N-(3-Fluoro-4-{[2-({[(3S)-3-hydroxypyrrolidin-1-yl]carbonyl}amino)pyridin-4-yl]oxy}phenyl)-N′-(4-fluorophenyl)cyclopropane-1,1-dicarboxamide] | 7.80 |
| O=C(Nc1cc(Oc2cc(F)c(NC(=O)C3(C(=O)Nc4ccc(F)cc4)CC3)cc2F)ccn1)N1CCC1 [Example 90, N-[4-({2-[(Azetidin-1-ylcarbonyl)amino]pyridin-4-yl}oxy)-2,5-difluorophenyl]-N′-(4-fluorophenyl)cyclopropane-1,1-dicarboxamide] | 7.92 |
| CN(C)CC1CN(C(=O)Nc2cc(Oc3cc(F)c(NC(=O)C4(C(=O)Nc5ccc(F)cc5)CC4)cc3F)ccn2)C1 [Example 93, N-[2,5-Difluoro-4-({2-[({3-[(dimethylamino)methyl]azetidin-1-yl]carbonyl)amino]pyridin-4-yl}oxy)phenyl]-N′-(4-fluorophenyl)cyclopropane-1,1-dicarboxamide] | 7.38 |
| O=C(Nc1cc(Oc2cc(F)c(NC(=O)C3(C(=O)Nc4ccc(F)cc4)CC3)cc2F)ccn1)N1CC(CO)C1 [Example 96, N-(2,5-Difluoro-4-{[2-({[3-(hydroxymethyl)azetidin-1-yl]carbonyl}amino)pyridin-4-yl]oxy}phenyl)-N′-(4-fluorophenyl)cyclopropane-1,1-dicarboxamide] | 7.77 |

Further lines, results first:

| pIC50 | SMILES |
| --- | --- |
| 7.22 | CN(C)CC1CCN(C(=O)Nc2cc(Oc3ccc(NC(=O)C4(C(=O)Nc5ccc(F)cc5)CC4)cc3F)ccn2)CC1 [Example 5, N-[4-({2-[({4-[(Dimethylamino)methyl]piperidin-1-yl}carbonyl)amino]pyridin-4-yl}oxy)-3-fluorophenyl]-N′-(4-fluorophenyl)cyclopropane-1,1-dicarboxamide] |
| 7.80 | O=C(Nc1cc(Oc2ccc(NC(=O)C3(C(=O)Nc4ccc(F)cc4)CC3)c(F)c2)ccn1)N1CCC(O)CC1 [Example 82, N-[2-Fluoro-4-[(2-{[(4-hydroxypiperidin-1-yl)carbonyl]amino}pyridin-4-yl)oxy]phenyl}-N′-(4-fluorophenyl)cyclopropane-1,1-dicarboxamide] |
| 7.82 | O=C(Nc1cc(Oc2ccc(NC(=O)C3(C(=O)Nc4ccc(F)cc4)CC3)cc2F)ccn1)N1CCC(CO)CC1 [Example 85, N-(3-Fluoro-4-{[2-({[-4-(hydroxymethyl)piperidin-1-yl]carbonyl}amino)pyridin-4-yl]oxy}phenyl)-N′-(4-fluorophenyl)cyclopropane-1,1-dicarboxamide] |
| 7.92 | O=C(Nc1cc(Oc2ccc(NC(=O)C3(C(=O)Nc4ccc(F)cc4)CC3)cc2F)ccn1)N1CC[C@@H](O)C1 [Example 86, N-(3-Fluoro-4-{[2-({[(3R)-3-hydroxypyrrolidin-1-yl]carbonyl}amino)pyridin-4-yl]oxy}phenyl)-N′-(4-fluorophenyl)cyclopropane-1,1-dicarboxamide] |
| 7.89 | O=C(Nc1cc(Oc2ccc(NC(=O)C3(C(=O)Nc4ccc(F)cc4)CC3)c(F)c2)ccn1)N1CC[C@H](O)C1 [Example 89, N-(2-Fluoro-4-{[2-({[(3S)-3-hydroxypyrrolidin-1-yl]carbonyl}amino)pyridin-4-yl]oxy}phenyl)-N′-(4-fluorophenyl)cyclopropane-1,1-dicarboxamide] |
| 7.33 | CN1CCN(C2CCN(C(=O)Nc3cc(Oc4cc(F)c(NC(=O)C5(C(=O)Nc6ccc(F)cc6)CC5)cc4F)ccn3)CC2)CC1 [Example 92, N-(2,5-Difluoro-4-{[2-({[4-(4-methylpiperazin-1-yl)piperidin-1-yl]carbonyl}amino)pyridin-4-yl]oxy}phenyl)-N′-(4-fluorophenyl)cyclopropane-1,1-dicarboxamide] |
| 7.30 | O=C(Nc1cc(Oc2cc(F)c(NC(=O)C3(C(=O)Nc4ccc(F)cc4)CC3)cc2F)ccn1)N1CC(CN2CCC2)C1 [Example 95, N-{4-[(2-{[3-(Azetidin-1-ylmethyl)azetidin-1-ylcarbonyl]amino}pyridin-4-yl)oxy]-2,5-difluorophenyl}-N′-(4-fluorophenyl)cyclopropane-1,1-dicarboxamide] |
| 7.68 | O=C(Nc1cc(Oc2cc(F)c(NC(=O)C3(C(=O)Nc4ccc(F)cc4)CC3)cc2F)ncn1)N1CC(O)C1 [Example 97, N-{2,5-Difluoro-4-[(4-{[(3-hydroxyazetidin-1-yl)carbonyl]amino}pyrimidin-6-yl)oxy]phenyl}-N′-(4-fluorophenyl)cyclopropane-1,1-dicarboxamide] |
| 7.17 | CN(C)CC1CN(C(=O)Nc2cc(Oc3cc(F)c(NC(=O)C4(C(=O)Nc5ccc(F)cc5)CC4)cc3F)ncn2)C1 [Example 98, N-[4-({4-[({3-[(Dimethylamino)methyl]azetidin-1-yl}carbonyl)amino]pyrimidin-6-yl}oxy)-2,5-difluorophenyl]-N′-(4-fluorophenyl)cyclopropane-1,1-dicarboxamide] |
